Here are results for one compound from patent publication US20230172897A1, “METHODS OF TREATING BREAST CANCERS WITH SELECTIVE ANDROGEN RECEPTOR MODULATORS AND ADDITIONAL THERAPEUTIC AGENTS” (VERU, INC., priority 2021, published 2023).

For data set [1], the system named is BR-0001 AR-positive TNBC tumor. Briefly: BR-0001 TNBC patient tumor xenograft in NSG mice. The data set is classed as in vivo. The procedure:
Xenograft experiment. NSG mice obtained from JAX labs were housed with five animals per cage and were allowed free access to tap water and commercial rat chow (Harlan Teklad 22/5 rodent diet—8640). During the course of the study, the animals were maintained on a 12 hr light:dark cycle. Animals were anesthetized and BR-0001 TNBC fragments of 1 mm^3 (approximately) were implanted subcutaneously in NSG mice. […] Tumor volume was measured thrice weekly. Tumor volume was calculated using the formula length×width×width×0.5236. Once tumors reached greater than 1500-2000 mm^3, animals were sacrificed and tumors weighted and stored for various analysis. Two regions of the same BR-0001 tumor, an AR-positive TNBC xenograft, were immunohistochemically stained with AR antibody (AR N20 from SCBT) (FIGS. 26A and 26B) and compared to an AR-negative (FIG. 26C) TNBC as a negative control. […] The tumor xenograft efficacy experimental results are provided in 27A-27C, with FIGS. 27A and 27B being replicate experiments.

The nature of data set [2]: Completed and ongoing clinical studies (overall tolerability). As to conditions: single doses up to 100 mg; multiple doses up to 30 mg once daily up to 14 days. It is filed as in vivo, human. The source says:
These include: 1. Protocol G100401, a Phase 1 single ascending dose study in 96 healthy, young, male volunteers; 2. Protocol G100402, a Phase 1 multiple ascending dose study in 50 healthy, young, male volunteers, and 23 elderly male volunteers with truncal obesity; 3. Protocol G100503, a Phase 1 single dose pharmacokinetic study to assess the effect of a dosage regimen that simulates a sustained release formulation to an immediate release formulation in 18 healthy, young male volunteers and 18 postmenopausal women; 4. Protocol G100506, a Phase 1 single dose pharmacokinetic study to assess the relative bioavailability of a 3 mg […] formulation to be used during continued clinical development and to assess the effect of food on the pharmacokinetics of the 3 mg softgel formulation in 27 healthy, young, male volunteers; 5. Protocol 006, a Phase 1 single dose and multiple dose pharmacokinetic study in 24 postmenopausal, Japanese women; 6. Protocol G200501, a Phase 2 study in 60 postmenopausal women and 60 elderly men to assess lean body mass and physical function; 7. Protocol 003, a Phase 1b study in 44 postmenopausal women; 8. Protocol G200502, a Phase 2b study in 159 men and postmenopausal women with cancer to assess lean body mass and physical function; 9.

For data set [3], the system named is ZR-75-1 breast cancer cells. Description: Growth assay, cell count. As to conditions: 6 days. The data set is classed as cell-based. The procedure: Cells were plated at varying densities in growth medium in 96 well plates. Cells were treated as indicated in the figures and viability measured using sulforhodamine B (SRB) or the number of cells counted using Coulter counter.
Although a few previous reports have shown that MCF-7 cells express AR and respond to AR ligands (Buchanan et al. (2005) Cancer Res 65, 8487-8496), the MCF-7 cell line clone in the study lacks or minimally expresses AR, which is in concordance with other reports (De Amicis et al. (2010) Breast Cancer Res Treat 121, 1-11).

For another data set, the system named is MCF-7-GFP cells. It is filed as cell-based. The following applies: 10 days. The procedure:
After 6 days of treatment, cells were harvested, and the number of cells was counted. […] Medium was changed after 3 days and re-treated. Cells were fixed after 6 days of treatment and the cell viability was measured by SRB assay. […] Medium was changed, and the cells were re-treated on days 4 and 7. Medium was collected, pooled from triplicates, and stored in −80° C. After 10 days of treatment, cells were fixed, and cell viability was measured using SRB. MCF-7 cells stably transfected with GFP (MCF-7-GFP) were plated in growth medium. Twenty-four hours after plating, cells were fed with the conditioned medium obtained from patient-derived fibroblasts as indicated above. Cells were fed for 10 days with conditioned medium, with medium changed on days 4 and 7. After 10 days of treatment, cells were fixed, and the viability was measured by SRB assay. […] AR-positive, but ER-negative HCI-9 PDX was surgically implanted as 1 mm^3 fragments under the mammary fat pad in NSG mice (n=8-10/group). […] Tumor volume was measured thrice weekly. […] ER-α from HCI-13 was cloned into pCR3.1 vector. […] Twenty four hours after treatment cells were harvested and luciferase assay was performed. […] Values are expressed as average ±S.E. from n=3-4/data point.
Conditioned medium was replaced on days 4 and 7 and the cells were stained with SRB to measure viability.

A further data set addresses T1, AR (Homo sapiens, UniProt P10275).
T1 sequence (P10275 1-920): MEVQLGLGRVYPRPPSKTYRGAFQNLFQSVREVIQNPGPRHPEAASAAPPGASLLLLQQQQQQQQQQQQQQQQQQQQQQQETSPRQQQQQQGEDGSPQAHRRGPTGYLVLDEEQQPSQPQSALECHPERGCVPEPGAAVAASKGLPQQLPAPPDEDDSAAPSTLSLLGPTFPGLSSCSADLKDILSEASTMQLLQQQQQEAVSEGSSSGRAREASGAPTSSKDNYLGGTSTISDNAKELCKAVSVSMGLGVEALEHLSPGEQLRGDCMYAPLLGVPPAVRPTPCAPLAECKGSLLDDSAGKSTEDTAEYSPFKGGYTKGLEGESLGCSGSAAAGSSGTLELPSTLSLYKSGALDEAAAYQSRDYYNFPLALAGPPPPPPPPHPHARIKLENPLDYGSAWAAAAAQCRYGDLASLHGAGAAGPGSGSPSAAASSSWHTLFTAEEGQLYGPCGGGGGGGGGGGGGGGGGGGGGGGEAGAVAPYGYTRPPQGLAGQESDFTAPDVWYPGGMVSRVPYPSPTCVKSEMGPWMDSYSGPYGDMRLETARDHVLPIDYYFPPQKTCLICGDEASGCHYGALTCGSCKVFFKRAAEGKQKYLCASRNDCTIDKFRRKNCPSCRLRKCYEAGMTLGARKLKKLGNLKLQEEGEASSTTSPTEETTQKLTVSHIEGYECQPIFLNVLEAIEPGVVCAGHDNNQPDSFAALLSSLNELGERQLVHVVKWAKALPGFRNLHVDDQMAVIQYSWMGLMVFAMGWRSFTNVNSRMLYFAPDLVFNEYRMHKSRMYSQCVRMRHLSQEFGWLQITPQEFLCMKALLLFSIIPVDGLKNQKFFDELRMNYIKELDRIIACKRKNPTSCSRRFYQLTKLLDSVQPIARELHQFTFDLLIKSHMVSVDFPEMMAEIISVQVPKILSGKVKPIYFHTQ
As to conditions: cited from earlier work.

For data set [4], the system named is breast cancer specimens obtained from patients. Description: Ex vivo sponge culture of breast cancer patient specimens, real time PCR. The following applies: 3 days.

On to `C[C@](O)(COc1ccc(C#N)cc1)C(=O)Nc1ccc(C#N)c(C(F)(F)F)c1` [Formula IX, (S)—N-(4-Cyano-3-(trifluoromethyl)phenyl)-3-(4-cyanophenoxy)-2-hydroxy-2-methylpropanamide], for which the BR-0001 tumor growth result in data set [1] (10 mg/kg/day orally) is on record as “some tumor growth inhibition”. For the same compound, in data set [1] (10 mg/kg/day, experiment 2), the “reduction of tumor weight” value is roughly 40%. The “reduction in Ki-67 staining” value in data set [1] (2 weeks of treatment) is recorded as “approximately 50%”. In addition, the tolerability entry in data set [2] is “generally well-tolerated”. For the same compound, the “proliferation of ZR-75-1 cells” value in data set [3] is “significantly reduced dose dependently”. Moreover, the “proliferation of MCF-7-GFP cells fed with conditioned medium of treated CAFs” value in the data set with MCF-7-GFP cells is listed as “inhibited the proliferation”. For the same compound, the “concentration at which it binds to and activates the AR” value at AR was “less than 10 nM”. Besides, the “specimens in which ER function was inhibited” value in data set [4] (1 μM Formula IX or 100 nM fulvestrant) is recorded as 3 of 8. Further, the “specimens in which AR agonist activity was observed” value in data set [4] (1 μM) is given as 4 of 8. For the same compound, the “ER function in specimen 1005” value in data set [4] is “inhibited the ER function”.
